Measured values reported in PubChem BioAssay AID1919004 (Molecular Pharmacology Branch, DTP, NCI, 2023).
Where “and” joins values, the source holds several entries; their conditions need not be identical. Identical values can stand only once.

Tested on: 883617-216-R-J1-PDC complex spheroids, growth, % test/control
Assay: Anticancer human tumor 883617-216-R-J1-PDC patient-derived bladder carcinoma cell line growth inhibition [AhR]
Settings: for viability, T/C: stronger effect = lower value
Text: Multicellular complex tumor spheroid response to aryl hydrocarbon receptor antagonists in combination with a variety of drugs and investigational agents in selected tumor cell lines
The current study was undertaken to assess response to aryl hydrocarbon receptor antagonists in combination with standard-of-care drugs and investigational agents in solid tumor complex spheroid models. Complex spheroids include a stromal component modeled by human endothelial cells (HUVEC) and fibroblasts modeled by human mesenchymal stem cells (MSCs). The concentration ranges selected for each drug and investigational agent were based upon clinically achievable concentrations if the clinical Cmax of the agent was known.
Compounds. The drugs and investigational agents: BAY 2416964 (NSC825713), GNF351 (NSC835774), CH-223191 (NSC835775), CPI-455 (NSC825282), aza-TdCyd (NSC777586), decitabine (NSC127716), belinostat (NSC758774), entinostat (NSC756642), pevonedistat (NSC761192), tazemetostat (NSC777109), talazoparib (NSC765396), olaparib (NSC753686), selinexor (NSC780203), nedisertib (M3814, NSC802822), bortezomib (NSC756655), venetoclax (NSC766270), doxorubicin (NSC123127), elimusertib (BAY189344, NSC800525), ceralasertib (AZD6738, NSC777638), TAK-243 (NSC785004), alisertib (NSC759677), etoposide (NSC141540), topotecan (NSC609699), eribulin (NSC707389), gemcitabine (NSC613327), carboplatin (NSC241240), cisplatin (NSC119875), and SN-38 (NSC673596) were obtained from the National Cancer Institute (NCI) Developmental Therapeutics Program Chemical Repository (32). The FDA-approved anticancer drug set is available from the Developmental Therapeutics Program at https://dtp.cancer.gov/organization/dscb/obtaining/available plates.htm. […] The stock solutions were prepared in dimethyl sulfoxide (DMSO, Sigma-Aldrich, St. Louis, MO, cat. D2650), except for the platinum compounds which were prepared in saline (Quality Biological, Gaithersburg, MD, cat. 114-055-101), at 800-fold the tested concentration and stored at -70 degrees C prior to their use. All drugs and investigational agents were tested over a range starting from a high concentration at or near the clinical Cmax and decreasing in half-log increments. If the clinical Cmax for an agent had not been determined, the highest concentration tested was 10 microM (Table 1).
Cell Culture. All cells were maintained in an incubator at 37 degrees C and 5% CO2 with 95% humidity. The PDC lines were cultured according to standard operating procedures established by the NCI PDMR (https://pdmr.cancer.gov). Briefly, all PDCs were thawed and cultured in Matrigel-coated flasks prepared with a working solution of 1X Ham's F-12 nutrient mix, without supplementation (Invitrogen, Waltham, MA, cat. 11765054), 100 U/mL penicillin-streptomycin (Invitrogen, cat. 15140122), and 2.5% Matrigel (Corning Inc., Corning, NY, cat. 354248) for the first three passages. All PDCs were cultured in complete DMEM/F-12 media containing advanced DMEM/F-12 (Invitrogen, cat. 12634028), 4.9% defined fetal bovine serum, heat inactivated (HyClone Laboratories Inc., Logan, UT, cat. SH30070.03HI), 389 ng/mL hydrocortisone (Sigma-Aldrich, cat. H4001), 9.7 ng/mL human EGF recombinant protein (Invitrogen, cat. PHG0313), 23.4 microg/mL adenine (Sigma-Aldrich, cat. A2786), 97.3 U/mL penicillin-streptomycin (Invitrogen, cat. 15140122), 1.9 mM L-glutamine (Invitrogen, cat. 25030081), and 9.7 microM Y-27632 dihydrochloride (Tocris Bioscience, Bristol, United Kingdom, cat. 1254). The PDCs were cultured in complete DMEM/F12 media without 10 microM Y-27632 dihydrochloride for at least two passages prior to the screen. The established cell lines NCI-H1341 and […] were cultured in DMEM/F-12, HEPES (Invitrogen, cat. 11330032), 5% defined fetal bovine serum (HyClone Laboratories Inc., cat. SH30070.03), ITS premix universal culture supplement [insulin (5 microg/mL), transferrin (5 microg/mL), and selenious acid (5 ng/mL)] […]
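Also: exposure lasted 7 days after dosing on day 3 of spheroid growth.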

With CC(C)CC(NC(=O)C(Cc1ccccc1)NC(=O)c1cnccn1)B(O)O (configuration not stated) the viability, T/C (compound 0.000949 µM) was 97.1% and 98.4% and 72.1%, the viability, T/C (compound 0.003 µM) was 105% and 94.3% and 10.1% and the viability, T/C (compound 0.03 µM) was 0.36% and 0.18% and 1.33%. For the same molecule, the viability, T/C (compound 0.0949 µM) was 0.25% and 0.13% and 2.71%, the viability, T/C (compound 0.3 µM) was 0.36% and 0.19% and 3.19% and the IC50 (curve of compound) was 0.00745 µM and 0.00716 µM and 0.00143 µM.
CC(C)c1c(-c2ccccc2)nc2c(C#N)c[nH]n2c1=O was tested, and the viability, T/C (compound 0.0316 µM) was 101% and 93.4% and 95%, the viability, T/C (compound 0.1 µM) was 107% and 97.3% and 110% and the viability, T/C (compound 0.316 µM) was 109% and 96% and 82.6%. The viability, T/C (compound 1 µM) was 98.6% and 98% and 68.8%, the viability, T/C (compound 3.16 µM) was 110% and 100% and 82.2% and the viability, T/C (compound 10 µM) was 105% and 102% and 77.7%. For the same molecule, the IC50 (curve of compound) was greater than 10 µM.
For CC(CO)NC(=O)c1cc(-c2ccc(Cl)cc2)nn(-c2cnn(C)c2)c1=O (configuration not stated), the IC50 (compound alone, run of 05/31/2022) was greater than 10 µM.
For CC1(C)CCC(CN2CCN(c3ccc(C(=O)NS(=O)(=O)c4ccc(NCC5CCOCC5)c([N+](=O)[O-])c4)c(Oc4cnc5[nH]ccc5c4)c3)CC2)=C(c2ccc(Cl)cc2)C1, the viability, T/C (compound 0.0316 µM) was 97.3% and 96.7% and 85.8%, the viability, T/C (compound 0.1 µM) was 105% and 106% and 130% and the viability, T/C (compound 0.316 µM) was 101% and 98.7% and 110%. For the same molecule, the viability, T/C (compound 1 µM) was 101% and 98.4% and 92.5%, the viability, T/C (compound 3.16 µM) was 99.6% and 105% and 72.3% and the viability, T/C (compound 10 µM) was 30.6% and 64.7% and 33.8%. For the same molecule, the IC50 (curve of compound) was 7.23 µM and > 10 µM and 6.07 µM.
With CC1COCCN1c1cc(-c2ccnn2C)c2ccnc(-c3ccn[nH]3)c2n1 (configuration not stated) the viability, T/C (compound 0.00316 µM) was 104% and 105% and 107%, the viability, T/C (compound 0.01 µM) was 97.6% and 103% and 86.6% and the viability, T/C (compound 0.0316 µM) was 100% and 93.5% and 68%. For the same molecule, the viability, T/C (compound 0.1 µM) was 72.3% and 75.9% and 62.1%, the viability, T/C (compound 0.316 µM) was 65.9% and 55.5% and 80.2% and the viability, T/C (compound 1 µM) was 51% and 51.4% and 54.9%. For the same molecule, the IC50 (curve of compound) was greater than 1 µM.
CC1COCCN1c1cc(C2(S(C)(=N)=O)CC2)nc(-c2ccnc3[nH]ccc23)n1 (configuration not stated) was tested, and the viability, T/C (compound 0.0316 µM) was 99.7% and 109% and 114%, the viability, T/C (compound 0.1 µM) was 97.4% and 97.5% and 101% and the viability, T/C (compound 0.316 µM) was 106% and 101% and 71.2%. For the same molecule, the viability, T/C (compound 1 µM) was 88.5% and 99.6% and 63.6%, the viability, T/C (compound 3.16 µM) was 76% and 80.4% and 89.1% and the viability, T/C (compound 10 µM) was 48.9% and 56.1% and 102%. The IC50 (curve of compound) was 9.6 µM and > 10 µM.
CCN(c1cc(-c2ccc(CN3CCOCC3)cc2)cc(C(=O)NCc2c(C)cc(C)[nH]c2=O)c1C)C1CCOCC1 was tested, and the viability, T/C (compound 0.00949 µM) was 95.9% and 98.2% and 103%, the viability, T/C (compound 0.03 µM) was 89.1% and 111% and 60.8% and the viability, T/C (compound 0.0949 µM) was 106% and 89.9% and 90.6%. For the same molecule, the viability, T/C (compound 0.3 µM) was 105% and 95.1% and 99.1%, the viability, T/C (compound 0.949 µM) was 104% and 115% and 88.1% and the viability, T/C (compound 3 µM) was 95.5% and 93.6% and 130%. For the same molecule, the IC50 (curve of compound) was greater than 3 µM.
With CC[C@@]1(O)C(=O)OCc2c1cc1n(c2=O)Cc2cc3c(CN(C)C)c(O)ccc3nc2-1 the viability, T/C (compound 0.000316 µM) was 92.8% and 94.7% and 101%, the viability, T/C (compound 0.001 µM) was 108% and 116% and 99.4% and the viability, T/C (compound 0.00316 µM) was 90.1% and 89.1% and 94.2%. For the same molecule, the viability, T/C (compound 0.01 µM) was 88.6% and 87.3% and 75.8%, the viability, T/C (compound 0.0316 µM) was 71% and 95.2% and 80.3% and the viability, T/C (compound 0.1 µM) was 67.6% and 80.6% and 70.9%. It also gave an IC50 (curve of compound) greater than 0.1 µM.
For CCc1c2c(nc3ccc(O)cc13)-c1cc3c(c(=O)n1C2)COC(=O)[C@]3(O)CC, the viability, T/C (compound 0.000949 µM) was 88.9% and 98.2% and 69%, the viability, T/C (compound 0.003 µM) was 82.4% and 85.1% and 111% and the viability, T/C (compound 0.00949 µM) was 72.4% and 70.3% and 75.6%. For the same molecule, the viability, T/C (compound 0.03 µM) was 79.9% and 64.4% and 83.5%, the viability, T/C (compound 0.0949 µM) was 68.2% and 57.1% and 75.1% and the viability, T/C (compound 0.3 µM) was 44.6% and 41% and 84.5%. The IC50 (curve of compound) was 0.234 µM and 0.137 µM and > 0.3 µM.
COc1cc(C2c3cc4c(cc3C(OC3OC5COC(C)OC5C(O)C3O)C3COC(=O)C23)OCO4)cc(OC)c1O (configuration not stated) was tested, and the viability, T/C (compound 0.0316 µM) was 91.8% and 80.6% and 110%, the viability, T/C (compound 0.1 µM) was 107% and 89.4% and 97.1% and the viability, T/C (compound 0.316 µM) was 75.1% and 76.3% and 79.2%. For the same molecule, the viability, T/C (compound 1 µM) was 63.8% and 88.8% and 74%, the viability, T/C (compound 3.16 µM) was 69.7% and 85.2% and 68.1% and the viability, T/C (compound 10 µM) was 59.4% and 84.4% and 59.1%. The IC50 (curve of compound) was greater than 10 µM.
In the case of COc1cc(Nc2ncc3c(n2)-c2ccc(Cl)cc2C(c2c(F)cccc2OC)=NC3)ccc1C(=O)O, the viability, T/C (compound 0.0316 µM) is reported as 88.6% and 85% and 80.8%, the viability, T/C (compound 0.1 µM) is reported as 78.9% and 73.3% and 119% and the viability, T/C (compound 0.316 µM) is reported as 75.5% and 72% and 97.8%. For the same molecule, the viability, T/C (compound 1 µM) was 74.1% and 70.4% and 84.2%, the viability, T/C (compound 3.16 µM) was 71.2% and 71% and 109% and the viability, T/C (compound 10 µM) was 72.2% and 65.5% and 117%. The IC50 (curve of compound) was greater than 10 µM.
COc1ccc([C@@H](O)c2cc(-c3ncnc4cc(N5CCOCC5)ccc34)c(F)cc2Cl)nn1 was tested, and the viability, T/C (compound 0.0316 µM) was 110% and 102% and 97.7%, the viability, T/C (compound 0.1 µM) was 110% and 106% and 123% and the viability, T/C (compound 0.316 µM) was 86.4% and 91.7% and 70%. For the same molecule, the viability, T/C (compound 1 µM) was 69.8% and 77.5% and 73.8%, the viability, T/C (compound 3.16 µM) was 54.8% and 51.5% and 64.2% and the viability, T/C (compound 10 µM) was 36.5% and 39.1% and 48.6%. The IC50 (curve of compound) was 3.72 µM and 3.86 µM and > 10 µM.
